“And” between values parts separate entries of the source, which are not always exact repeats. Equal values may be shown once.
Assays:
Type in all cases: cell-based, human
HepG2 cells [1] = assay: Colony-forming assay; conditions: concentration- and time-dependent; 24, 48, 72 h treatment
Method: A total of 500 cells were plated in 6-well plates with 4 mL of complete medium and treated with the drugs for 24, 48, or 72 h to determine clonogenic potential. The medium was subsequently replaced with fresh drug-free medium, and the plates were cultivated for 14 days. After that, the cells were fixed in methanol and stained with 0.5% crystal violet. Using an optical microscope (Nikon, TS100), the number of colonies with >50 cells was counted.

HepG2 cells [2] = assay: Mitochondrial transmembrane potential (rhodamine 123); conditions: HepG2, 24 h
Method: For apoptosis detection, cell viability was quantified using Annexin V-FITC/PI (FITC Annexin V Apoptosis Detection Kit I, BD Biosciences, San Jose, CA, USA) according to the manufacturer’s instructions. The cells were also stained with rhodamine 123 (5 μg/mL, Sigma Aldrich Co.) for 15 min at 37 °C in the dark to assess the mitochondrial transmembrane potential. After the cells were washed, they were incubated in saline for 30 min in the dark at 37 °C and analyzed by flow cytometry.

HepG2 tumorspheres = assay: HepG2 tumorspheres; conditions: for HepG2 tumorsphere growth: 3D tumorspheres; for cell death in HepG2 tumorspheres (AO/PI): 48 h, 10 μM complex 1, 5 μM complex 2
Method: HepG2 cells were seeded at a low cell density (1000 cells/well in 2 mL) in 24-well low-adhesion plates (Corning, USA) using serum-free DMEM-F12 supplemented with 20 ng/mL EGF (PeproTech, USA), 20 ng/mL bFGF (PeproTech, USA), and B27 supplement (Invitrogen, Carlsbad, CA, USA). After 5 days of incubation (to allow spheroid formation), the cells were treated with 20, 10, 5, 2.5 or 1.25 µM of each complex. The cells were photographed after 0, 24, and 48 h of treatment using an optical microscope (Leica, DMI8). In a new set of experiments, cells were treated with 10 µM complex 1 or 5 µM complex 2 for 48 h, stained with acridine orange (1 μg/mL) plus PI (1 μg/mL) and analyzed by a Leica TCS SP8 confocal microscope (Leica Microsystems, Wetzlar, HE, Germany).

HepG2 cells [3] = assay: qPCR array gene expression; parameters: key to RQ MTOR / RQ GSTP1 / RQ TXN / RQ TXNRD1 / RQ CTSS / RQ TOP2B / RQ NFKB1 / RQ HDAC1 / RQ AURKC / RQ NTN3 / RQ HDAC6 / RQ TNKS: RQ by 2^-ΔΔCT, fold vs 0.2% DMSO calibrator (=1); key to RQ BCL2 / RQ BIRC5 / RQ ERBB2 / RQ ERBB3 / RQ IGF1R / RQ CTSD / RQ ESR1 / RQ CDC25A / RQ HIF1A / RQ CDK9 / RQ MDM2 / RQ TP53 / RQ KRAS / RQ HDAC11 / RQ HDAC8: fold change by 2^-ΔΔCT vs 0.2% DMSO calibrator (=1); conditions: 12 h; 8 µM complex 1, 6 µM complex 2
Method: Total RNA was extracted using the RNeasy Plus Mini Kit (Qiagen; Hilden, Germany) following the manufacturer’s instructions. A NanoDrop® 1000 spectrophotometer (Thermo Fisher Scientific, Waltham, Massachusetts, USA) was used to quantify and assess the purity of the RNA. Reverse transcription was performed using the Superscript VILOTM enzyme (Invitrogen Corporation; Waltham, MA, USA), and a TaqMan® array human cancer drug target 96-well plate, fast (ID RPRWENH, Applied BiosystemsTM, Foster City, CA, USA) was used for the gene expression study by qPCR (ABI ViiA7, Applied Biosystems instrument). The cycle conditions were 2 min at 50 °C, 10 min at 95 °C, and 40 cycles of 15 s at 95 °C and 1 min at 60 °C. All the experiments were conducted under DNase/RNase-free conditions. The 2^-ΔΔCT method was used to calculate the relative quantification (RQ) of mRNA expression using Gene Expression SuiteTM Software (Applied BiosystemsTM). Cells treated with the negative control (0.2% DMSO) were used as a calibrator, and the RQs of the reference genes GAPDH, UBC and RPLP0 were used to normalize the responses.

SMILES: Cc1cc(=O)nc([S][Ru+])[nH]1.F[P-](F)(F)(F)(F)F.c1ccc(-c2ccccn2)nc1.c1ccc(P(c2ccccc2)c2ccccc2)cc1.c1ccc(P(c2ccccc2)c2ccccc2)cc1 [Complex 2, trans-[Ru(6m2TU)(PPh3)2(bipy)]PF6]
- clonogenic viability of HepG2 cells (HepG2 cells [1]): significantly decreased
- mitochondrial depolarization (HepG2 cells [2]): Significant mitochondrial depolarization
- HepG2 tumorsphere growth (HepG2 tumorspheres): reduced
- cell death in HepG2 tumorspheres (AO/PI) (HepG2 tumorspheres): caused cell death
- RQ ABCC1 (HepG2 cells [3]): 1.941
- RQ AKT1 (HepG2 cells [3]): 1.087
- RQ AKT2 (HepG2 cells [3]): 1.490
- RQ ATF2 (HepG2 cells [3]): 2.672
- RQ AURKA (HepG2 cells [3]): 1.172
- RQ AURKB (HepG2 cells [3]): 1.242
- RQ AURKC (HepG2 cells [3]): 2.011
- RQ BCL2 (HepG2 cells [3]): 1.249
- RQ BIRC5 (HepG2 cells [3]): 1.033
- RQ CDC25A (HepG2 cells [3]): 6.141
- RQ CDK1 (HepG2 cells [3]): 0.752
- RQ CDK2 (HepG2 cells [3]): 1.120
- RQ CDK4 (HepG2 cells [3]): 1.730
- RQ CDK5 (HepG2 cells [3]): 1.104
- RQ CDK7 (HepG2 cells [3]): 2.039
- RQ CDK8 (HepG2 cells [3]): 3.664
- RQ CDK9 (HepG2 cells [3]): 1.146
- RQ CTSB (HepG2 cells [3]): 0.972
- RQ CTSD (HepG2 cells [3]): 1.586
- RQ CTSL (HepG2 cells [3]): 0.950
- RQ CTSS (HepG2 cells [3]): 0.866
- RQ EGFR (HepG2 cells [3]): 1.856
- RQ ERBB2 (HepG2 cells [3]): 1.118
- RQ ERBB3 (HepG2 cells [3]): 1.280
- RQ ESR1 (HepG2 cells [3]): 0.968
- RQ ESR2 (HepG2 cells [3]): 2.732
- RQ GRB2 (HepG2 cells [3]): 2.255
- RQ GSTP1 (HepG2 cells [3]): 0.276 and 0.27
- RQ HDAC1 (HepG2 cells [3]): 16.128
- RQ HDAC2 (HepG2 cells [3]): 2.118
- RQ HDAC3 (HepG2 cells [3]): 3.639
- RQ HDAC4 (HepG2 cells [3]): 0.456
- RQ HDAC6 (HepG2 cells [3]): 1.088
- RQ HDAC7 (HepG2 cells [3]): 2.228
- RQ HDAC8 (HepG2 cells [3]): 1.517
- RQ HDAC11 (HepG2 cells [3]): 3.379
- RQ HIF1A (HepG2 cells [3]): 3.509
- RQ HRAS (HepG2 cells [3]): 0.785
- RQ HSP90AA1 (HepG2 cells [3]): 3.278
- RQ HSP90B1 (HepG2 cells [3]): 2.205
- RQ IGF1R (HepG2 cells [3]): 1.357
- RQ KRAS (HepG2 cells [3]): 1.185
- RQ MDM2 (HepG2 cells [3]): 0.982
- RQ MDM4 (HepG2 cells [3]): 2.736
- RQ MTOR (HepG2 cells [3]): 1.092
- RQ NFKB1 (HepG2 cells [3]): 0.760
- RQ NRAS (HepG2 cells [3]): 0.469
- RQ NTN3 (HepG2 cells [3]): 0.712
- RQ PARP1 (HepG2 cells [3]): 1.065
- RQ PARP4 (HepG2 cells [3]): 2.503
- RQ PDGFRB (HepG2 cells [3]): 1.004
- RQ PGR (HepG2 cells [3]): 30.650
- RQ PIK3C2A (HepG2 cells [3]): 0.839
- RQ PIK3C3 (HepG2 cells [3]): 0.840
- RQ PIK3CA (HepG2 cells [3]): 0.441 and 0.44
- RQ PLK1 (HepG2 cells [3]): 0.509
- RQ PLK2 (HepG2 cells [3]): 5.868
- RQ PLK3 (HepG2 cells [3]): 2.039
- RQ PLK4 (HepG2 cells [3]): 0.844
- RQ PRKCA (HepG2 cells [3]): 1.337
- RQ PRKCB (HepG2 cells [3]): 0.506
- RQ PRKCD (HepG2 cells [3]): 0.340
- RQ PRKCE (HepG2 cells [3]): 1.636
- RQ PTGS2 (HepG2 cells [3]): 15.420
- RQ RHOA (HepG2 cells [3]): 0.628
- RQ RHOB (HepG2 cells [3]): 0.406
- RQ TERT (HepG2 cells [3]): 1.051
- RQ TNKS (HepG2 cells [3]): 2.369
- RQ TOP2A (HepG2 cells [3]): 0.423
- RQ TOP2B (HepG2 cells [3]): 0.235
- RQ TP53 (HepG2 cells [3]): 1.658
- RQ TXN (HepG2 cells [3]): 0.375 and 0.37
- RQ TXNRD1 (HepG2 cells [3]): 0.35

SMILES: F[P-](F)(F)(F)(F)F.O=c1cc[nH]c([S][Ru+])n1.c1ccc(-c2ccccn2)nc1.c1ccc(P(c2ccccc2)c2ccccc2)cc1.c1ccc(P(c2ccccc2)c2ccccc2)cc1 [Complex 1, trans-[Ru(2TU)(PPh3)2(bipy)]PF6]
- clonogenic viability of HepG2 cells (HepG2 cells [1]): significantly decreased
- mitochondrial depolarization (HepG2 cells [2]): Significant mitochondrial depolarization
- HepG2 tumorsphere growth (HepG2 tumorspheres): reduced
- cell death in HepG2 tumorspheres (AO/PI) (HepG2 tumorspheres): caused cell death
- RQ ABCC1 (HepG2 cells [3]): 2.226
- RQ AKT1 (HepG2 cells [3]): 0.775
- RQ AKT2 (HepG2 cells [3]): 0.889
- RQ ATF2 (HepG2 cells [3]): 1.702
- RQ AURKA (HepG2 cells [3]): 0.691
- RQ AURKB (HepG2 cells [3]): 0.759
- RQ AURKC (HepG2 cells [3]): 1.565
- RQ BCL2 (HepG2 cells [3]): 1.602
- RQ BIRC5 (HepG2 cells [3]): 0.800
- RQ CDC25A (HepG2 cells [3]): 2.454
- RQ CDK1 (HepG2 cells [3]): 0.664
- RQ CDK2 (HepG2 cells [3]): 0.777
- RQ CDK4 (HepG2 cells [3]): 1.130
- RQ CDK5 (HepG2 cells [3]): 0.572
- RQ CDK7 (HepG2 cells [3]): 2.521
- RQ CDK8 (HepG2 cells [3]): 2.592
- RQ CDK9 (HepG2 cells [3]): 0.937
- RQ CTSB (HepG2 cells [3]): 0.797
- RQ CTSD (HepG2 cells [3]): 1.503
- RQ CTSL (HepG2 cells [3]): 1.271
- RQ CTSS (HepG2 cells [3]): 1.314
- RQ EGFR (HepG2 cells [3]): 1.217
- RQ ERBB2 (HepG2 cells [3]): 0.682
- RQ ERBB3 (HepG2 cells [3]): 0.915
- RQ ESR1 (HepG2 cells [3]): 0.564
- RQ ESR2 (HepG2 cells [3]): 2.165
- RQ GRB2 (HepG2 cells [3]): 1.501
- RQ GSTP1 (HepG2 cells [3]): 0.499 and 0.49
- RQ HDAC1 (HepG2 cells [3]): 0.833
- RQ HDAC2 (HepG2 cells [3]): 1.190
- RQ HDAC3 (HepG2 cells [3]): 0.989
- RQ HDAC4 (HepG2 cells [3]): 0.764
- RQ HDAC6 (HepG2 cells [3]): 0.564
- RQ HDAC7 (HepG2 cells [3]): 1.008
- RQ HDAC8 (HepG2 cells [3]): 0.970
- RQ HDAC11 (HepG2 cells [3]): 1.729
- RQ HIF1A (HepG2 cells [3]): 3.170
- RQ HRAS (HepG2 cells [3]): 0.753
- RQ HSP90AA1 (HepG2 cells [3]): 2.760
- RQ HSP90B1 (HepG2 cells [3]): 3.676
- RQ IGF1R (HepG2 cells [3]): 0.916
- RQ KRAS (HepG2 cells [3]): 1.809
- RQ MDM2 (HepG2 cells [3]): 1.685
- RQ MDM4 (HepG2 cells [3]): 2.263
- RQ MTOR (HepG2 cells [3]): 0.395 and 0.39
- RQ NFKB1 (HepG2 cells [3]): 0.451 and 0.45
- RQ NRAS (HepG2 cells [3]): 0.908
- RQ NTN3 (HepG2 cells [3]): 5.849
- RQ PARP1 (HepG2 cells [3]): 0.638
- RQ PARP4 (HepG2 cells [3]): 0.801
- RQ PDGFRB (HepG2 cells [3]): 0.964
- RQ PGR (HepG2 cells [3]): 8.929
- RQ PIK3C2A (HepG2 cells [3]): 0.855
- RQ PIK3C3 (HepG2 cells [3]): 1.001
- RQ PIK3CA (HepG2 cells [3]): 0.817
- RQ PLK1 (HepG2 cells [3]): 0.520
- RQ PLK2 (HepG2 cells [3]): 1.630
- RQ PLK3 (HepG2 cells [3]): 2.378
- RQ PLK4 (HepG2 cells [3]): 0.743
- RQ PRKCA (HepG2 cells [3]): 1.667
- RQ PRKCB (HepG2 cells [3]): 0.327
- RQ PRKCD (HepG2 cells [3]): 0.661
- RQ PRKCE (HepG2 cells [3]): 2.615
- RQ PTGS2 (HepG2 cells [3]): 7.499
- RQ RHOA (HepG2 cells [3]): 0.642
- RQ RHOB (HepG2 cells [3]): 0.437
- RQ TERT (HepG2 cells [3]): 0.604
- RQ TNKS (HepG2 cells [3]): 3.189
- RQ TOP2A (HepG2 cells [3]): 0.469
- RQ TOP2B (HepG2 cells [3]): 0.499
- RQ TP53 (HepG2 cells [3]): 1.021
- RQ TXN (HepG2 cells [3]): 0.546
- RQ TXNRD1 (HepG2 cells [3]): 1.341

Reference: PMC11148080, “Ru(II)-based complexes containing 2-thiouracil derivatives suppress liver cancer stem cells by targeting NF-κB and Akt/mTOR signaling” (Cell Death Discovery, 2024)
